Assay results taken from publication PMC6545111 (Journal of medicinal chemistry, 2018).
Several values for one entry are separate records, joined by “and”; a condition that tells them apart may be missing. Identical values can stand only once. Like-named read-outs stand apart in the source and are kept apart here.

How the values were obtained:
[1] = system: MV4;11, MOLM-13 and RS4;11 acute leukemia cell lines; experiment: Cell growth inhibition, statements covering the three leukemia cell lines; format: cell-based, human
[2] = system: BRD2, BRD3 and BRD4 proteins in RS4;11 cells; conditions: 3 h treatment
[3] = system: cleaved PARP and cleaved Caspase 3 in MV4;11 cells; experiment: Western blotting of cleaved PARP / caspase 3 in MV4; format: cell-based, human; conditions: MV4;11 cell line
[4] = system: c-Myc protein in RS4;11 cells; experiment: Western blotting of c-Myc in RS4; format: cell-based, human; conditions: RS4;11 cell line
GSPT1 protein = GSPT1 protein (Homo sapiens, UniProt P15170); experiment: Western blotting of GSPT1 in MV4; format: cell-based; conditions: MV4;11 and RS4;11 cells
[5] = Tissue distribution in mice bearing RS4; format: in vivo, SCID mice; conditions: IV, 5mg/kg; for Concentration of QCA570 in Heart / Concentration of QCA570 in Intestine / Concentration of QCA570 in Kidney / Concentration of QCA570 in Liver / Concentration of QCA570 in Lung / Concentration of QCA570 in Tumor / Concentration of QCA570 in plasma: individual mice
MOLM-13 cells = experiment: Apoptosis by flow cytometry; format: cell-based, human; conditions: MOLM-13, as low as 1 nM, 24 h treatment
RS4;11 xenograft tumors = experiment: Anti-tumor efficacy, RS4; format: in vivo, SCID mice
[6] = system: BRD2, BRD3 and BRD4 proteins in MV4;11 cells; experiment: Western blotting of BET proteins in MV4; format: cell-based; conditions: 3 h treatment
MV4;11 xenograft tumors = conditions: 3 times per week for 2 weeks, intravenous
[7] = system: cleaved PARP and cleaved Caspase 3 in RS4;11 cells; experiment: Western blotting of cleaved PARP / caspase 3 in RS4; format: cell-based, human; conditions: RS4;11 cell line, 24 h treatment
MV4;11 cells = experiment: Apoptosis by flow cytometry; format: cell-based, human; conditions: MV4;11, as low as 1 nM, 24 h treatment
[8] = system: c-Myc protein in MV4;11 cells; experiment: Western blotting of c-Myc in MV4; format: cell-based, human; conditions: MV4;11 cell line
RS4;11 cells = experiment: Apoptosis by flow cytometry; format: cell-based, human
[9] = system: BRD2, BRD3, BRD4, c-Myc and cleaved PARP in RS4;11 xenograft tumors; experiment: Pharmacodynamic analysis in RS4; format: in vivo, SCID mice
[10] = RS4;11 xenograft, all treatment groups

Chain of GSPT1 protein (P15170 whole entry): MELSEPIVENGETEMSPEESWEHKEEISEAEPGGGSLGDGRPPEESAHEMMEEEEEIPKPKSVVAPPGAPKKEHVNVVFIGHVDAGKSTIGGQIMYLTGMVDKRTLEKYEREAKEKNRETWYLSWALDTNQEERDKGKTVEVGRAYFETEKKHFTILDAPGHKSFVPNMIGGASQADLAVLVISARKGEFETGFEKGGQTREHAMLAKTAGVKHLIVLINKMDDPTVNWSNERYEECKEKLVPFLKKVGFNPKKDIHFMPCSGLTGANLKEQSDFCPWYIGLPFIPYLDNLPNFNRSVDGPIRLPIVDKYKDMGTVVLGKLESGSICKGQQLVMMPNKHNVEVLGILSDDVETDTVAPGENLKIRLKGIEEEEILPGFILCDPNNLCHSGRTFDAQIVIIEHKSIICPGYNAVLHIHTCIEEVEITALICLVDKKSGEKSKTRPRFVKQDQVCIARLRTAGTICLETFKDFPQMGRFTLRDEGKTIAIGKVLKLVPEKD

3-(4-(5-(4-((3-Benzyl-9-methyl-4H,6H-thieno[2,3-e][1,2,4]triazolo[3,4-c][1,4]oxazepin-2-yl)ethynyl)-1H-pyrazol-1-yl)pent-1-yn-1-yl)-1-oxoisoindolin-2-yl)piperidine-2,6-dione [Compound 35]
times more potent than ZBC260 in cell growth inhibition ([1]; MV4;11 and MOLM-13 cell lines): > 10 times | times more potent than ARV-771 in cell growth inhibition ([1]; each of the three cell lines): > 10 times | times more potent than ARV-825 in cell growth inhibition ([1]; each of the three cell lines): > 10 times | times more potent than dBET1 in cell growth inhibition ([1]; each of the three cell lines): > 1,000 times | degradation of BRD2, BRD3 and BRD4 proteins ([2]; 0.5 nM): complete degradation | concentration effective in reducing BRD2 protein level [2]: 30 to 100 pM | lowest concentration very effective in reducing BRD3 and BRD4 protein levels [2]: ≤ 10 pM | lowest concentration inducing caspase 3 activation [3]: ≤ 0.3 nM | lowest concentration inducing robust cleavage of PARP ([3]; 24 h treatment): 0.1 to 0.3 nM | lowest concentration very effective in reducing c-Myc protein levels [4]: ≤ 10 pM | effect on GSPT1 protein (GSPT1 protein): no effect | Concentration of QCA570 in Heart ([5]; 1 h, listed as QCA570, 5 mg/kg): 373 ng/g and 288 ng/g | Concentration of QCA570 in Intestine ([5]; 1 h, listed as QCA570, 5 mg/kg): 1283 ng/g and 1009 ng/g | Concentration of QCA570 in Kidney ([5]; 1 h, listed as QCA570, 5 mg/kg): 649 ng/g and 675 ng/g | Concentration of QCA570 in Liver ([5]; 1 h, listed as QCA570, 5 mg/kg): 1227 ng/g and 1720 ng/g | Concentration of QCA570 in Lung ([5]; 1 h, listed as QCA570, 5 mg/kg): 1041 ng/g and 696 ng/g | Concentration of QCA570 in Tumor ([5]; 1 h, listed as QCA570, 5 mg/kg): 642 ng/g and 405 ng/g | Concentration of QCA570 in plasma ([5]; 1 h, listed as QCA570, 5 mg/kg): 1575 ng/mL and 2360 ng/mL | Concentration of QCA570 in Heart ([5]; 3 h, listed as QCA570, 5 mg/kg): 17 ng/g and 22 ng/g | Concentration of QCA570 in Intestine ([5]; 3 h, listed as QCA570, 5 mg/kg): 50 ng/g and 92 ng/g | Concentration of QCA570 in Kidney ([5]; 3 h, listed as QCA570, 5 mg/kg): 40 ng/g and 49 ng/g | Concentration of QCA570 in Liver ([5]; 3 h, listed as QCA570, 5 mg/kg): 57 ng/g and 209 ng/g | Concentration of QCA570 in Lung ([5]; 3 h, listed as QCA570, 5 mg/kg): 35 ng/g and 89 ng/g | Concentration of QCA570 in Tumor ([5]; 3 h, listed as QCA570, 5 mg/kg): 177 ng/g and 199 ng/g | Concentration of QCA570 in plasma ([5]; 3 h, listed as QCA570, 5 mg/kg): 47 ng/mL and 263 ng/mL | Concentration of QCA570 in Heart ([5]; 6 h): BLQ | Concentration of QCA570 in Intestine ([5]; 6 h): BLQ | Concentration of QCA570 in Kidney ([5]; 6 h): BLQ | Concentration of QCA570 in Liver ([5]; 6 h): BLQ | Concentration of QCA570 in Lung ([5]; 6 h): BLQ | Concentration of QCA570 in plasma ([5]; 6 h): BLQ | Concentration of QCA570 in Tumor ([5]; 6 h, listed as QCA570, 5 mg/kg): 87.9 ng/g and 68.7 ng/g | Concentration of QCA570 in Heart, mean ([5]; Mean (1h)): 331 ng/g | Concentration of QCA570 in Intestine, mean ([5]; Mean (1h)): 1146 ng/g | Concentration of QCA570 in Kidney, mean ([5]; Mean (1h)): 662 ng/g | Concentration of QCA570 in Liver, mean ([5]; Mean (1h)): 1473 ng/g | Concentration of QCA570 in Lung, mean ([5]; Mean (1h)): 868 ng/g | Concentration of QCA570 in Tumor, mean ([5]; Mean (1h)): 524 ng/g | Concentration of QCA570 in plasma, mean ([5]; Mean (1h)): 1968 ng/mL | Concentration of QCA570 in Heart, mean ([5]; Mean (3h)): 19 ng/g | Concentration of QCA570 in Intestine, mean ([5]; Mean (3h)): 71 ng/g | Concentration of QCA570 in Kidney, mean ([5]; Mean (3h)): 44 ng/g | Concentration of QCA570 in Liver, mean ([5]; Mean (3h)): 133 ng/g | Concentration of QCA570 in Lung, mean ([5]; Mean (3h)): 62 ng/g | Concentration of QCA570 in Tumor, mean ([5]; Mean (3h)): 188 ng/g | Concentration of QCA570 in plasma, mean ([5]; Mean (3h)): 155 ng/mL | Concentration of QCA570 in Heart, mean ([5]; Mean (6 h)): BLQ | Concentration of QCA570 in Intestine, mean ([5]; Mean (6 h)): BLQ | Concentration of QCA570 in Kidney, mean ([5]; Mean (6 h)): BLQ | Concentration of QCA570 in Liver, mean ([5]; Mean (6 h)): BLQ | Concentration of QCA570 in Lung, mean ([5]; Mean (6 h)): BLQ | Concentration of QCA570 in Tumor, mean ([5]; Mean (6 h)): 78 ng/g | Concentration of QCA570 in plasma, mean ([5]; Mean (6 h)): BLQ | cells undergoing apoptosis (MOLM-13 cells): > 60% | tumor response (RS4;11 xenograft tumors; RS4;11 xenograft, 5 mg/kg weekly): complete tumor growth inhibition but not tumor regression | tumor response (RS4;11 xenograft tumors; RS4;11 xenograft, 1, 2.5 and 5 mg/kg, 3 times per week for 3 weeks): complete and long-lasting tumor regression | animal weight loss (RS4;11 xenograft tumors; [10]): minimal animal weight loss | signs of toxicity (RS4;11 xenograft tumors; [10]): no other signs of toxicity | concentration effective in reducing BRD2 protein level [6]: 30 to 100 pM | lowest concentration very effective in reducing BRD3 and BRD4 protein levels [6]: ≤ 10 pM | tumor response (MV4;11 xenograft tumors; 1 mg/kg): complete tumor regression | tumor response (MV4;11 xenograft tumors; 5 mg/kg): complete and long-lasting tumor regression | caspase 3 cleavage [7]: not detected | lowest concentration inducing robust cleavage of PARP [7]: 0.1 to 0.3 nM | cells undergoing apoptosis (MV4;11 cells): > 60% | lowest concentration very effective in reducing c-Myc protein levels [8]: ≤ 30 pM | apoptosis induction (RS4;11 cells; RS4;11, 0.1 nM, 24 h treatment): minimal effect | cells undergoing apoptosis (RS4;11 cells; RS4;11, 0.1 nM, 48 h treatment): > 40% | cells undergoing apoptosis (RS4;11 cells; RS4;11, 0.3–10 nM, 24 h treatment): 15–30% | levels of BRD2, BRD3 and BRD4 proteins in tumor tissue ([9]; single intravenous dose 1 and 5 mg/kg, 1 h and 6 h time-points): dramatically reduces | c-Myc protein levels in tumor tissue ([9]; single intravenous dose 1 and 5 mg/kg, all time points (1, 6, 24 h)): reduces c-Myc protein levels dramatically | cleavage of PARP in tumor tissue ([9]; single intravenous dose, 6 h and 24 h time-points): very effective in inducing cleavage of PARP | reduction of BRD4 protein level at 24 h, 5 mg/kg compared with 1 mg/kg ([9]; single intravenous dose, 24 h time-point): more effective
